From ChEMBL document CHEMBL1146582, “Phenolic constituents from Dalbergia cochinchinensis” (J Nat Prod, 2003) come the findings set out here.

By inhibition is commonly meant the share of the control response that was lost under treatment.

A short description of experiment [1]: Inhibition of testerone 5-alpha-reductase at 25 ug/mL.
The nature of experiment [2]: Inhibition of testerone 5-alpha-reductase at 50 ug/mL.
Experiment [3] is described as follows: Inhibition of testerone 5-alpha-reductase at 100 ug/mL.

For the molecule `COC1=CC(=O)C(Cc2oc3cc(OC)c(O)cc3c2-c2ccccc2)=CC1(C/C=C/c1ccccc1)OC` (stereo not drawn), the inhibition in experiment [1] stood at 0.6%; in experiment [2] it was 3.8%; in experiment [3], 17%.
In the same order, the values of `COC1=CC(=O)c2cc(-c3ccccc3)c3cc(O)c(OC)cc3c2C1=O` are 42.8%, 52% and 65.6%.
In the same order, the values of `C=CC(c1ccccc1)c1cc(O)c(OC)cc1OC` (stereo not drawn) are 8.2%, 18.9% and 51.8%.
As for `COc1cc(O)ccc1C(=O)/C=C/c1ccccc1`, the inhibition in experiment [1] was found to be 19.5%; in experiment [2] it was 20.7%; in experiment [3], 22.8%.
Turning to `CC1(C)[C@@H](O)CC[C@]2(C)[C@H]3C(=O)C=C4[C@@H]5C[C@@](C)(C(=O)O)CC[C@]5(C)CC[C@@]4(C)[C@]3(C)CC[C@@H]12`, the inhibition came out at 31.7% in experiment [1], 64.7% in experiment [2] and 87.1% in experiment [3].
In the same order, the values of `COc1cc2oc(Cc3cc(OC)c(OC)cc3OC/C=C/c3ccccc3)c(-c3ccccc3)c2cc1O` are 11.5%, 15.9% and 18.1%.
